Test results taken from publication PMC10477886, “Adamantaniline Derivatives Target ATP5B to Inhibit Translation of Hypoxia Inducible Factor‐1α” (Advanced Science, 2023).
“Also recorded” adds a separate entry of the source.

How the values were obtained:
[1] = biological target: F1‐ATP synthase complex (Sus scrofa, UniProt K7GLT8+P80021); experiment: fluorescence polarization binding assay; parameters: species or system pig; details: F1‐ATPase 30 nM, HI‐103 4 nM, competitor 1 μM
Description: ATP5A and ATP5B are important components of FOF1–ATP synthase, also known as ATP synthase, which is a protein complex that catalyzes ATP synthesis by utilizing energy from the translocation of protons across biological membranes.^[ [40] ^] FOF1‐ATP synthase consists of two domains: the membrane‐spanning domain, FO, which acts as a proton channel, and the soluble catalytic domain, F1, which synthesizes ATP and is composed of nine subunits(α 3 β 3 γδɛ).^[ [41], [42], [43], [44] ^] […] To verify whether HI‐101 targeted ATP5A and ATP5B, we knocked down the subunits of F1 domains separately by shRNA.
F1‐ATPase at indicated concentrations was incubated with HI‐103 (4 nM), bodipy‐1 was as a negative molecule, conduct the experiment after incubating in 96‐well microplates of black polystyrene for 10 min. The FP results were analyzed with GraphPad Prism 9.0.

[2] = biological target: T1, interaction between ATP5B and HIF‐1α mRNA (Homo sapiens, UniProt P06576); experiment: RNA‐binding protein immunoprecipitation; type: cell-based; details: immunoprecipitation with anti‐ATP5B antibody
T1 construct: endogenous in cells
Description: It has been reported recently that KUSC‐5037 inhibited HIF‐1α transcription by suppressing FoF1‐ATP synthase activity.^[ [35] ^] Thus, we wondered whether HI‐101 inhibited HIF‐1α translation in a similar way. Several ATP synthase inhibitors with various mechanisms of action have been reported.^[ [54] ^] Among them, Oligomycin inhibits the ATP synthase activity by binding the FO domain; Bedaquiline, an FDA‐approved drug, inhibits mitochondrial ATP production by targeting the gamma subunit of the ATP synthase;^[ [55] ^] Aurovertin B decreases ATP synthase activity by targeting the subunits of F1 domain. We first measured HIF‐1α transcriptional activity and protein level with the presence of reported ATP synthase inhibitors. […] A recent study reported that ATP5B shut down mPTP by binding circRNA SCAR in an enzymatic‐independent way,^[ [56] ^] which reminded us whether ATP5B played a similar role in blocking HIF‐1α translation. RNA‐binding protein immunoprecipitation was then performed using the Magna RIP RNA‐Binding Protein Immunoprecipitation Kit (Millipore, Burlington, MA) to detect the interaction between ATP5B and HIF‐1α mRNA.

[3] = test system: HIF‐1α target genes (VEGF and PDK1) mRNA expression; experiment: quantitative RT‐PCR of HIF‐1α target genes; type: cell-based, human; details: listed as HI‐101
Procedure: Total RNA was isolated using Trizol reagent (Invitrogen). Complementary DNA was synthesized using a Reverse Transcriptase reagent (Promega). Fluorescence real‐time PCR was performed with the double‐stranded DNA dye SYBR Master Mix (Roche Diagnostics Corporation, Indianapolis, IN, USA) and the Applied Biosystems Step One Plus detection system (ABI 7900). The upstream and downstream gene‐specific primers were as follows. • HIF‐1α sense: 5′‐[…]‐3′, • HIF‐1α antisense: 5′‐[…]‐3′; • HIF‐1β sense: 5′‐[…]‐3′, • HIF‐1β antisense:5′‐[…]‐3′; • VEGF sense: 5′‐[…]‐3′, • VEGF antisense: 5′‐[…]‐3′; • PDK1 sense:5′‐[…]‐3′, • PDK1 antisense:5′‐GGAGGTCTCAACACGAGGT‐3′; • β‐actin sense: 5′‐[…]‐3′, • β‐actin antisense: 5′‐[…]‐3′; • ATP5D sense:5′‐ […]‐3′, • ATP5D antisense: 5′‐[…]‐3′; • ATP5E sense: 5′‐ […]‐3′, • ATP5E antisense:5′‐[…]‐3′; • ATP5F1 sense: 5′‐ […]‐3′, • ATP5F1 antisense:5′‐[…]‐3′.

[4] = test system: HIF‐1α protein synthesis; experiment: AHA labeling assay of nascent HIF‐1α protein; type: cell-based, human; details: HEK293T, hypoxia, 10 or 20 µM
Procedure: Lysosome and ubiquitin/proteasome systems are two main pathways for cellular protein degradation.^[ [49], [50] ^] MG‐132 and PS‐341 are potent, selective, and reversible proteasome inhibitors, chloroquine (CQ) and NH4Cl are autophagy inhibitors that inhibit lysosomal degradation by increasing lysosomal pH. MG‐132, PS‐341, CQ, NH4Cl, and DMSO at indicated concentrations were added to HEK293T cells for 6 h followed by treatment with DMSO or 10 µM HI‐101 for another 12 h under hypoxia condition. Cells were then collected, lysed, and immunoblotted to detect HIF‐1α protein level. […] In order to verify whether HI‐101 inhibited the synthesis of HIF‐1α protein, L‐azidohomoalanine (AHA) labeling assay^[ [51] ^] was carried out. The nascent protein was labeled by AHA incorporation, enriched by click reaction, and detected by anti‐biotin antibody.
HEK293T cells seeded in 10 cm dishes were added with DMSO or HI‐101 at concentrations 10 or 20 µM, then cultured in hypoxia incubator. The next day, cells were washed twice with PBS and incubated in DMEM without methionine for 4 h. At the same time, add […] (AHA) to all groups, and the positive control group treatment with cycloheximide (CHX). AHA concentration and incubation time were 50 µM and 4 h. […]

Structure (SMILES): O=C(Nc1ccc(C23CC4CC(CC(C4)C2)C3)cc1)c1cccc(Cl)c1 [1‐3a, N‐(4‐((3r,5r,7r)‐Adamantan‐1‐yl)Phenyl)−3‐Chlorobenzamide]
- competitive fluorescence polarization binding [1]: bound to F1‐ATP synthase complex in a similar way as HI‐103
- HIF‐1α mRNA binding to ATP5B [2]: improved HIF‐1α mRNA binding to ATP5B
- HIF‐1α target genes mRNA expression [3]: significantly inhibited HIF‐1α transcriptional activity and the expressions of HIF‐1α target genes; also recorded: significantly decreased the mRNA expression of HIF‐1α target gene VEGF
- HIF‐1α protein synthesis (nascent, AHA labeled) [4]: significantly inhibited
